The values below come from US12214009B2, “Compositions and methods for improving bruising and rejuvenating skin” (Alastin Skincare, Inc., priority 2019, dated 2025).

Data set [1] relates to macrophages (RAW-Difluo mLC3 autophagy reporter cells) phagocytosing human red blood cells. Put plainly: Macrophage phagocytosis of red blood cells (heme absorbance). As to conditions: FIG. 6; 24 h; peptide alone; tripeptide-1 2.9 ug/mL, hexapeptide-11 100 ug/mL, hexapeptide-12 2.9 ug/mL. The data set is classed as cell-based. How it is done: The assay was performed according to manufacturer's instructions (Cell BioLabs, Inc.). Macrophages used were RAW-Difluo mLC3 autophagy reporter cells. Human red blood cells (RBCs) were obtained from ZenBio (catalog number SER-10MLRBC). Briefly, 24 hours before the assay, macrophages were plated on 96-well plates. One plate was plated with 12,500 macrophages and a second plate with 25,000 macrophages. The day of the assay, human red blood cells (RBCs) were opsonized with human RBC antibody. As a negative control, sheep RBCs were opsonized with human RBC antibody. The media was then replaced with either peptide or no peptide. Blood was added to the plates at a 200:1 RBC to macrophage ratio. Phagocytosis was measured beginning at 2 hours after blood was added. The media and blood were removed from the wells of the plate. The plate was washed once with RBC lysis buffer to remove non-phagocytosed RBCs followed by two washes with PBS. Macrophage lysis buffer was then added to the plate and the lysed solution was transferred to a 96-well plate. The substrate solution to detect heme was added to the 96-well plate and absorbance was recorded at 1 minute, 5 minutes, 10, minutes, and 20 minutes. FIGS. 1B-1C show images of macrophage phagocytosis prior to red blood cell (RBC) washout (FIG. 1B) and after RBC washout (FIG. 1C). Arrows indicate macrophages with RBCs (hollow circles). […]

In data set [2] the test system is dermal and epidermal hyaluronic acid level. The note with it: ex vivo human skin model; cited from earlier work.
Data set [3] in a line: Penetration ability log Kow. The data set is classed as physicochemical. The procedure:
A water suspension of liposomes was prepared with 1.5% of hydrophilic molecule A or 300 ppm (0.03%) hydrophilic molecule B, and 27% Pro-Lipo™ Neo. […] Molecule B was a hexapeptide (hexapeptide-38) with a molecular weight of (870 g/mol) and a penetration ability log Kow of −1.13. A water solution with 1.5% A or 300 ppm B was used as a control (non-entrapped molecule).

Take hexapeptide-11: the “phagocytosis relative to NT control” value in data set [1] was “decrease or no change”.
Turning to `CCCCCCCC(=O)CCc1ccc(O)c(OC)c1` [Hydroxymethoxyphenyl decanone], in data set [2], the “stimulation of dermal hyaluronic acid level versus placebo” value is 259% and the “stimulation of epidermal hyaluronic acid level versus placebo” value is listed as 198%.
Take `Cn1c(=O)c2c(ncn2C)n(C)c1=O` [Molecule A, caffeine]: the “penetration ability log Kow” value in data set [3] is −0.07.
For the compound tripeptide-1, the “phagocytosis relative to NT control” value in data set [1] is listed as “decrease or no change”.
